The record followed here is ChEMBL document CHEMBL1142769, “A preliminary study of the metabolic stability of a series of benzoxazinone derivatives as potent neuropeptide Y5 antagonists” (Bioorg Med Chem Lett, 2005).

The nature of data set [1]: Half life period after 1 hour in Rat liver microsomes at 37 degree C an incubation concentration of 10 uM. Background: Microsomes from liver hold many membrane-bound enzymes, among them those of drug oxidation.
A short description of data set [2]: Inhibitory concentration required for Metabolic stability after 1 hour at an incubation concentration of 10 uM. The data set is classed as ADME.
Data set [3] can be described thus: Half life period after 1 hour in human liver microsomes at 37 degree C an incubation concentration of 10 uM.
The nature of data set [4]: Metabolic stability after 1 hour in Rat liver microsomes at 37 degree C an incubation concentration of 10 uM.
A short description of data set [5]: Metabolic stability after 1 hour in human liver microsomes at 37 degree C an incubation concentration of 10 uM.

By half-life is commonly meant how long it takes for the measured level to halve. A high value points to slow decline. The IC50 is the concentration at which inhibition is half-maximal. Higher therefore signals a need for much substance. With `O=C(CN1CCC(N2C(=O)OCc3c(F)cccc32)CC1)Nc1ccc2[nH]c3ccccc3c2c1`, the half-life at 1 h, 10 µM in data set [1] (liver microsomes) was 19.3 min; in data set [3] (liver microsomes), 95 min. This compound came in with an IC50 in data set [2] of 461 nM.

Broadly, the share remaining is what is left of the initial amount, in per cent. Take `O=C(CN1CCC(N2C(=O)OCc3ccc(Cl)cc32)CC1)Nc1ccc2sc3ccccc3c2c1`: the half-life at 1 h, 10 µM in data set [1] (microsomes) amounted to 32.7 min; in data set [3] (microsomes), 28.4 min. In addition, the values for the amount remaining at 1 h, 10 µM in data set [4] and in data set [5] were 24% and 19.6%, respectively. The compound also yielded an IC50 in data set [2] of 135 nM.
